# Source: patent US6495559B2, “NPY Y5 receptor antagonists” (Merck & Co., Inc., priority 1998, dated 2002)
row,melting point [°C],Compound
1,235 to 237,CS(=O)(=O)N1CC2(CCN(C(=O)Nc3cc(-c4ccccc4)no3)CC2)c2ccccc21
2,143.2 to 147.4,"CS(=O)(=O)N1CC2(CCN(C(=O)Nc3ccc(-c4nccs4)cc3)CC2)c2ccccc21 [Compound 111, 1-methylsulfonyl-N-[4-(2-thiazolyl)phenyl]spiro[indoline-3,4′-piperidine]-1′-carboxamide]"
3,195 to 199,"COc1cccc2oc(NC(=O)N3CCC4(CC3)CN(S(C)(=O)=O)c3ccccc34)nc12 [Compound 128, N-(4-methoxybenzoxazol-2-yl)-1-methylsulfonylspiro[indoline-3,4′-piperidine]-1′-carboxamide]"
4,186 to 188,"COc1ccccc1-c1cnc(NC(=O)N2CCC3(CC2)CN(S(C)(=O)=O)c2ccccc23)cn1 [Compound 102, N-[5-(2-methoxyphenyl)-2-pyrazinyl]-1-methylsulfonylspiro[indoline-3,4′-piperidine]-1′-carboxamide]"
5,252 to 254,"CS(=O)(=O)N1CC2(CCN(C(=O)Nc3ccc(N4CCCC4)nc3)CC2)c2ccccc21 [Compound 116, 1-methylsulfonyl-N-[2-(1-pyrrolidinyl)-5-pyridyl]spiro[indoline-3,4′-piperidine]-1′-carboxamide]"
6,262 to 266,"CS(=O)(=O)N1CC2(CCN(C(=O)Nc3cnc(-c4nncs4)cn3)CC2)c2cc(F)ccc21 [Compound 150, 5-fluoro-1-methylsulfonyl-N-[5-(1,3,4-thiadiazol-2-yl)-2-pyrazinyl]spiro[indoline-3,4′-piperidine]-1′-carboxamide]"
7,220 to 222,CCc1cc(-c2ccc(NC(=O)N3CCC4(CC3)CN(S(C)(=O)=O)c3ccccc34)cc2)ccn1.Cl
8,219 to 220,"Cc1cccc2ccc(NC(=O)N3CCC4(CC3)CN(S(C)(=O)=O)c3ccccc34)nc12 [Compound 131, 1-methylsulfonyl-N-(8-methylquinolin-2-yl)spiro[indoline-3,4′-piperidine]-1′-carboxamide]"
9,243 to 244,"CS(=O)(=O)N1CC2(CCN(C(=O)Nc3nc4cc(F)ccc4s3)CC2)c2ccccc21 [Compound 129, N-(5-fluorobenzothiazol-2-yl)-1-methylsulfonylspiro[indoline-3,4′-piperidine]-1′-carboxamide]"
10,180.5 to 182.7,"C=CCc1cnc(NC(=O)N2CCC3(CC2)CN(S(C)(=O)=O)c2ccccc23)cn1 [Compound 105, 1-methylsulfonyl-N-[5-(2-propenyl)-2-pyrazinyl]spiro[indoline-3,4′-piperidine]-1′-carboxamide]"
11,180 to 181.5,"CCS(=O)(=O)N1CC2(CCN(C(=O)Nc3cn(-c4ccccc4F)cn3)CC2)c2ccccc21 [Compound 204, 1-ethylsulfonyl-N-[1-(2-fluorophenyl)imidazol-4-yl]spiro[indoline-3,4′-piperidine]-1′-carboxamide]"
12,215.5 to 215.8,"CS(=O)(=O)N1CC2(CCN(C(=O)Nc3cnc(-c4ccccc4)cn3)CC2)c2cc(F)ccc21 [Compound 202, 5-fluoro-1-methylsulfonyl-N-(5-phenyl-2-pyrazinyl)spiro[indoline-3,4′-piperidine]-1′-carboxamide]"
13,239 to 240,"CS(=O)(=O)N1CC2(CCN(C(=O)Nc3cnc(-c4ncns4)cn3)CC2)c2cc(F)ccc21 [Compound 151, 5-fluoro-1-methylsulfonyl-N-[5-(1,2,4-thiadiazol-5-yl)-2-pyrazinyl]spiro[indoline-3,4′-piperidine]-1′-carboxamide]"
14,223 to 224,"CCS(=O)(=O)N1CC2(CCN(C(=O)Nc3cnc(-c4nncs4)cn3)CC2)c2cc(F)ccc21 [Compound 155, 1-ethylsulfonyl-5-fluoro-N-[5-(1,3,4-thiadiazol-2-yl)-2-pyrazinyl]spiro[indoline-3,4′-piperidine]-1′-carboxamide]"
15,133 to 136,"CS(=O)(=O)N1CC2(CCN(C(=O)Nc3nsc(-c4ccccc4)n3)CC2)c2ccccc21 [Compound 123, 1-methylsulfonyl-N-(5-phenyl-1,2,4-thiadiazol-3-yl)spiro[indoline-3,4′-piperidine]-1′-carboxamide]"
16,211 to 214,"CCS(=O)(=O)N1CC2(CCN(C(=O)Nc3cnc(-c4ncns4)cn3)CC2)c2ccccc21 [Compound 153, 1-ethylsulfonyl-N-[5-(1,2,4-thiadiazol-5-yl)-2-pyrazinyl]spiro[indoline-3,4′-piperidine]-1′-carboxamide]"
17,247 to 249,"CS(=O)(=O)N1CC2(CCN(C(=O)Nc3cnc(-c4nncs4)cn3)CC2)c2ccccc21 [Compound 146, 1-methylsulfonyl-N-[5-(1,3,4-thiadiazol-2-yl)-2-pyrazinyl]spiro[indoline-3,4′-piperidine]-1′-carboxamide]"
18,242 to 243,"CS(=O)(=O)N1CC2(CCN(C(=O)Nc3cnc(-c4nncs4)cn3)CC2)c2ccc(F)cc21 [Compound 148, 6-fluoro-1-methylsulfonyl-N-[5-(1,3,4-thiadiazol-2-yl)-2-pyrazinyl]spiro[indoline-3,4′-piperidine]-1′-carboxamide]"

row,melting point [°C],Compound
1,197 to 199,"CS(=O)(=O)N1CC2(CCN(C(=O)Nc3cnc(-c4ccccc4Cl)cn3)CC2)c2ccccc21 [Compound 103, N-[5-(2-chlorophenyl)-2-pyrazinyl]-1-methylsulfonylspiro[indoline-3,4′-piperidine]-1′-carboxamide]"
2,237 to 239,"CS(=O)(=O)N1CC2(CCN(C(=O)Nc3cnc(-c4ncns4)cn3)CC2)c2ccc(F)cc21 [Compound 149, 6-fluoro-1-methylsulfonyl-N-[5-(1,2,4-thiadiazol-5-yl)-2-pyrazinyl]spiro[indoline-3,4′-piperidine]-1′-carboxamide]"
3,178.3 to 178.5,"CCS(=O)(=O)N1CC2(CCN(C(=O)Nc3cc(-c4ccc(Cl)cc4)on3)CC2)c2ccccc21 [Compound 143, N-[5-(4-chlorophenyl)isoxazol-3-yl]-1-ethylsulfonylspiro[indoline-3,4′-piperidine]-1′-carboxamide]"
4,222 to 225,CS(=O)(=O)N1CC2(CCN(C(=O)Nc3ccc(C(=O)c4ccccc4)cc3)CC2)c2ccccc21.Cl
5,242 to 242.5,"CCc1nc(-c2ccc(NC(=O)N3CCC4(CC3)CN(S(C)(=O)=O)c3ccccc34)cc2)cs1 [Compound 107, N-[4-(2-ethyl-4-thiazolyl)phenyl]-1-methylsulfonylspiro[indoline-3,4′-piperidine]-1′-carboxamide]"
6,> 300,"NS(=O)(=O)N1CC2(CCN(C(=O)Nc3nnc(-c4ccccc4)s3)CC2)c2ccccc21 [Compound 400, N-(5-phenyl-1,3,4-thiadiazol-2-yl)-1-sulfamoylspiro[indoline-3,4′-piperidine]-1′-carboxamide]"
7,251 to 253,"CS(=O)(=O)N1CC2(CCN(C(=O)Nc3cnc(-c4ccccc4)nc3)CC2)c2ccccc21 [Compound 113, 1-methylsulfonyl-N-(2-phenyl-5-pyrimidinyl)spiro[indoline-3,4′-piperidine]-1′-carboxamide]"
8,224 to 225,"Cc1ccc2nc(NC(=O)N3CCC4(CC3)CN(S(C)(=O)=O)c3ccccc34)cnc2c1 [Compound 130, 1-methylsulfonyl-N-(6-methylquinoxalin-2-yl)spiro[indoline-3,4′-piperidine]-1′-carboxamide]"
9,224,"CS(=O)(=O)N1CC2(CCN(C(=O)Nc3ccc(-c4ccccc4)nc3)CC2)c2ccccc21 [Compound 114, 1-methylsulfonyl-N-(2-phenyl-5-pyridyl)spiro[indoline-3,4′-piperidine]-1′-carboxamide]"
10,214,"CS(=O)(=O)N1CC2(CCN(C(=O)Nc3ccc(-c4ccccc4)cn3)CC2)c2ccccc21 [Compound 112, 1-methylsulfonyl-N-(5-phenyl-2-pyridyl)spiro[indoline-3,4′-piperidine]-1′-carboxamide]"
11,260,"CC(=O)N1CC2(CCN(C(=O)Nc3nnc(-c4ccccc4)s3)CC2)c2ccccc21 [Compound 600, 1-Acetyl-N-(5-phenyl-1,3,4-thiadiazol-2-yl)spiro[indoline-3,4′-piperidine]-1′-carboxamide]"
12,200 to 202,"CCS(=O)(=O)N1CC2(CCN(C(=O)Nc3cn(-c4cccc(F)c4)cn3)CC2)c2ccccc21 [Compound 203, 1-ethylsulfonyl-N-[1-(3-fluorophenyl)imidazol-4-yl]spiro[indoline-3,4′-piperidine]-1′-carboxamide]"
13,213 to 214,"CS(=O)(=O)N1CC2(CCN(C(=O)Nc3cnc4ccc(Cl)cc4n3)CC2)c2ccccc21 [Compound 132, N-(7-chloroquinoxalin-2-yl)-1-methylsulfonylspiro[indoline-3,4′-piperidine]-1′-carboxamide]"
14,228 to 230,"CCS(=O)(=O)N1CC2(CCN(C(=O)Nc3cnc(-c4nncs4)cn3)CC2)c2ccc(F)cc21 [Compound 154, 1-ethylsulfonyl-6-fluoro-N-[5-(1,3,4-thiadiazol-2-yl)-2-pyrazinyl]spiro[indoline-3,4′-piperidine]-1′-carboxamide]"
15,139 to 140,CCS(=O)(=O)N1CC2(CCN(C(=O)Nc3cn(-c4ccccc4)cn3)CC2)c2ccccc21.Cl
16,234 to 238,"CS(=O)(=O)N1CC2(CCN(C(=O)Nc3cnc(-c4ncns4)cn3)CC2)c2ccccc21 [Compound 147, 1-methylsulfonyl-N-[5-(1,2,4-thiadiazol-5-yl)-2-pyrazinyl]spiro[indoline-3,4′-piperidine]-1′-carboxamide]"
17,216 to 218,"COc1cccc(-n2cnc(NC(=O)N3CCC4(CC3)CN(S(C)(=O)=O)c3ccccc34)c2)c1 [Compound 126, N-[1-(3-methoxyphenyl)imidazol-4-yl]-1-methylsulfonylspiro[indoline-3,4′-piperidine]-1′-carboxamide]"
18,234 to 235,"CS(=O)(=O)N1CC2(CCN(C(=O)Nc3cnc(-c4ccccn4)cn3)CC2)c2ccccc21 [Compound 104, 1-methylsulfonyl-N-[5-(2-pyridyl)-2-pyrazinyl]spiro[indoline-3,4′-piperidine]-1′-carboxamide]"
